Experimental data: patent US9156796B2, “Benzoimidazole-carboxylic acid amide derivatives as APJ receptor modulators” (SANOFI, priority 2013, dated 2015)

Target: T1, human apelin receptor (Homo sapiens, UniProt P35414)
T1 construct: expressed in transfected cells
T1 sequence (P35414 1-380): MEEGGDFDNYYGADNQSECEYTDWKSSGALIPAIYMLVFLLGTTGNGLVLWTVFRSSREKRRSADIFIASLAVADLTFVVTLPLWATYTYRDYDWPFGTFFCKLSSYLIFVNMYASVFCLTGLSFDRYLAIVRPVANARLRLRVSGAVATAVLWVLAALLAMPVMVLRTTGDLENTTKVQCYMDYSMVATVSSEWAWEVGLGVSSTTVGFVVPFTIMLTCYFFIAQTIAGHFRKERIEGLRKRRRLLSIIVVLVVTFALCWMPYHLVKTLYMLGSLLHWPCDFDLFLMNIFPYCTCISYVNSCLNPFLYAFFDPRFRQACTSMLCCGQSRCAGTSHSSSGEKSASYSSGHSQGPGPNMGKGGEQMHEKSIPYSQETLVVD
Assay: Determination of agonism on the human apelin receptor by a calcium fluorescence assay (FLIPR)
Format: cell-based
Settings: HEK293 cells stably transfected with human apelin receptor and Giaq protein, Fluo-4 calcium fluorescence, read-out: EC50 (APJ agonism)
Method in brief: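 Agonist EC50s come from peak intracellular calcium transients recorded by FLIPR Tetra, scaled to the 1 μM apelin-13 maximum per plate. Test system: HEK293 stably transfected with human apelin receptor plus Giaq, Fluo-4-loaded (4 μM, 1 h, 37 °C, pH 7.4 buffer with probenecid); ≥7 concentrations, triplicates.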

Structure (SMILES) | EC50
CCC(CC)n1c(Cc2cccs2)nc2cc(C(=O)N[C@@H](CC(C)C)C(=O)NCC3CN(Cc4ccccc4)CCO3)ccc21 (stereo partly drawn) [Example 330, 1-(1-Ethyl-propyl)-2-thiophen-2-ylmethyl-1H-benzoimidazole-5-carboxylic acid {(S)-1-[(4-benzyl-morpholin-2-ylmethyl)-carbamoyl]-3-methyl-butyl}-amide] | 2480 nM
CCCCN1CCC(CNC(=O)[C@H](CC(C)C)NC(=O)c2ccc3c(c2)nc(Cc2cccs2)n3C(CC)CC)CC1 [Example 331, 1-(1-Ethyl-propyl)-2-thiophen-2-ylmethyl-1H-benzoimidazole-5-carboxylic acid {(S)-1-[(1-butyl-piperidin-4-ylmethyl)-carbamoyl]-3-methyl-butyl}-amide] | 267 nM
CCC(CC)n1c(Cc2cccs2)nc2cc(C(=O)N[C@@H](CC(C)C)C(=O)NCCCN3CC(C)CC(C)C3)ccc21 (stereo partly drawn) [Example 332, 1-(1-Ethyl-propyl)-2-thiophen-2-ylmethyl-1H-benzoimidazole-5-carboxylic acid {(S)-1-[3-(3,5-dimethyl-piperidin-1-yl)-propylcarbamoyl]-3-methyl-butyl}-amide] | 692 nM
CCC(CC)n1c(Cc2cccs2)nc2cc(C(=O)N[C@@H](CC(C)C)C(=O)Nc3cccc(N4CCOCC4)c3)ccc21 [Example 333, 1-(1-Ethyl-propyl)-2-thiophen-2-ylmethyl-1H-benzoimidazole-5-carboxylic acid [(S)-3-methyl-1-(3-morpholin-4-yl-phenylcarbamoyl)-butyl]-amide] | 27300 nM
CCC(CC)n1c(Cc2cccs2)nc2cc(C(=O)N[C@@H](CC(C)C)C(=O)N3CCC(N4CCOCC4)CC3)ccc21 [Example 334, 1-(1-Ethyl-propyl)-2-thiophen-2-ylmethyl-1H-benzoimidazole-5-carboxylic acid [(S)-3-methyl-1-(4-morpholin-4-yl-piperidine-1-carbonyl)-butyl]-amide] | 412 nM
CCC(CC)n1c(Cc2cccs2)nc2cc(C(=O)N[C@@H](CC(C)C)C(=O)N3CCC(N4CCCCCC4)CC3)ccc21 [Example 335, 1-(1-Ethyl-propyl)-2-thiophen-2-ylmethyl-1H-benzoimidazole-5-carboxylic acid [(S)-1-(4-azepan-1-yl-piperidine-1-carbonyl)-3-methyl-butyl]-amide] | 384 nM
CCC(CC)n1c(Cc2cccs2)nc2cc(C(=O)N[C@@H](CC(C)C)C(=O)N3CCC(N(CC)Cc4ccccc4)CC3)ccc21 [Example 336, 1-(1-Ethyl-propyl)-2-thiophen-2-ylmethyl-1H-benzoimidazole-5-carboxylic acid {(S)-1-[4-(benzyl-ethyl-amino)-piperidine-1-carbonyl]-3-methyl-butyl}-amide] | 1260 nM
CCC(CC)n1c(Cc2cccs2)nc2cc(C(=O)N[C@@H](CC(C)C)C(=O)NC3CCN(CC(C)C)CC3)ccc21 [Example 337, 1-(1-Ethyl-propyl)-2-thiophen-2-ylmethyl-1H-benzoimidazole-5-carboxylic acid [(S)-1-(1-isobutyl-piperidin-4-ylcarbamoyl)-3-methyl-butyl]-amide] | 331 nM
CCC(CC)n1c(Cc2cccs2)nc2cc(C(=O)N[C@@H](CC(C)C)C(=O)NC3CCN(CCc4ccccc4)CC3)ccc21 [Example 338, 1-(1-Ethyl-propyl)-2-thiophen-2-ylmethyl-1H-benzoimidazole-5-carboxylic acid [(S)-3-methyl-1-(1-phenethyl-piperidin-4-ylcarbamoyl)-butyl]-amide] | 1590 nM
CCC(CC)n1c(Cc2cccs2)nc2cc(C(=O)N[C@@H](CC(C)C)C(=O)NCCCN3CCCC(C)C3)ccc21 (stereo partly drawn) [Example 339, 1-(1-Ethyl-propyl)-2-thiophen-2-ylmethyl-1H-benzoimidazole-5-carboxylic acid {(S)-3-methyl-1-[3-(3-methyl-piperidin-1-yl)-propylcarbamoyl]-butyl}-amide] | 444 nM
CCC(CC)n1c(Cc2cccs2)nc2cc(C(=O)N[C@@H](CC(C)C)C(=O)NC3CCN(CC)CC3)ccc21 [Example 340, 1-(1-Ethyl-propyl)-2-thiophen-2-ylmethyl-1H-benzoimidazole-5-carboxylic acid [(S)-1-(1-ethyl-piperidin-4-ylcarbamoyl)-3-methyl-butyl]-amide] | 185 nM
CCC(CC)n1c(Cc2cccs2)nc2cc(C(=O)N[C@@H](CC(C)C)C(=O)NCCCN3CCN(Cc4ccccc4)CC3)ccc21 [Example 341, 1-(1-Ethyl-propyl)-2-thiophen-2-ylmethyl-1H-benzoimidazole-5-carboxylic acid {(S)-1-[3-(4-benzyl-piperazin-1-yl)-propylcarbamoyl]-3-methyl-butyl}-amide] | 918 nM
CCC(CC)n1c(Cc2cccs2)nc2cc(C(=O)N[C@@H](CC(C)C)C(=O)NCCCN3CCS(=O)(=O)CC3)ccc21 [Example 342, 1-(1-Ethyl-propyl)-2-thiophen-2-ylmethyl-1H-benzoimidazole-5-carboxylic acid {(S)-1-[3-(1,1-dioxo-1lambda6-thiomorpholin-4-yl)-propylcarbamoyl]-3-methyl-butyl}-amide] | 999 nM
CCC(CC)n1c(Cc2cccs2)nc2cc(C(=O)N[C@@H](CC(C)C)C(=O)NCC3CN(C)CCO3)ccc21 (stereo partly drawn) [Example 343, 1-(1-Ethyl-propyl)-2-thiophen-2-ylmethyl-1H-benzoimidazole-5-carboxylic acid {(S)-3-methyl-1-[(4-methyl-morpholin-2-ylmethyl)-carbamoyl]-butyl}-amide] | 419 nM
CCC(CC)n1c(Cc2cccs2)nc2cc(C(=O)N[C@@H](CC(C)C)C(=O)NC3CCN(CC4CCCCC4)CC3)ccc21 [Example 344, 1-(1-Ethyl-propyl)-2-thiophen-2-ylmethyl-1H-benzoimidazole-5-carboxylic acid [(S)-1-(1-cyclohexylmethyl-piperidin-4-ylcarbamoyl)-3-methyl-butyl]-amide] | 1690 nM
CCC(CC)n1c(Cc2cccs2)nc2cc(C(=O)N[C@@H](CC(C)C)C(=O)N3CCC(N(C)Cc4ccccc4)CC3)ccc21 [Example 345, 1-(1-Ethyl-propyl)-2-thiophen-2-ylmethyl-1H-benzoimidazole-5-carboxylic acid {(S)-1-[4-(benzyl-methyl-amino)-piperidine-1-carbonyl]-3-methyl-butyl}-amide] | 1670 nM
CCC(CC)n1c(Cc2cccs2)nc2cc(C(=O)N[C@@H](CC(C)C)C(=O)NCCCN3CCC(Cc4ccccc4)CC3)ccc21 [Example 346, 1-(1-Ethyl-propyl)-2-thiophen-2-ylmethyl-1H-benzoimidazole-5-carboxylic acid {(S)-1-[3-(4-benzyl-piperidin-1-yl)-propylcarbamoyl]-3-methyl-butyl}-amide] | 1320 nM
CCC(CC)n1c(Cc2cccs2)nc2cc(C(=O)N[C@@H](CC(C)C)C(=O)N3CC4CC3CN4CC)ccc21 (stereo partly drawn) [Example 347, 1-(1-Ethyl-propyl)-2-thiophen-2-ylmethyl-1H-benzoimidazole-5-carboxylic acid [(S)-1-(5-ethyl-2,5-diaza-bicyclo[2.2.1]heptane-2-carbonyl)-3-methyl-butyl]-amide] | 809 nM
CCC(CC)n1c(Cc2cccs2)nc2cc(C(=O)N[C@@H](CC(C)C)C(=O)N3CC4CC3CN4CC(C)C)ccc21 (stereo partly drawn) [Example 348, 1-(1-Ethyl-propyl)-2-thiophen-2-ylmethyl-1H-benzoimidazole-5-carboxylic acid [(S)-1-(5-isobutyl-2,5-diaza-bicyclo[2.2.1]heptane-2-carbonyl)-3-methyl-butyl]-amide] | 2660 nM
CCC(CC)n1c(Cc2cccs2)nc2cc(C(=O)N[C@@H](CC(C)C)C(=O)N3CC4CC3CN4CC3CCCC3)ccc21 (stereo partly drawn) [Example 349, 1-(1-Ethyl-propyl)-2-thiophen-2-ylmethyl-1H-benzoimidazole-5-carboxylic acid [(S)-1-(5-cyclopentylmethyl-2,5-diaza-bicyclo[2.2.1]heptane-2-carbonyl)-3-methyl-butyl]-amide] | 3040 nM
CCC(CC)n1c(Cc2cccs2)nc2cc(C(=O)N[C@@H](CC(C)C)C(=O)N3CC4CC3CN4Cc3ccc(C(F)(F)F)cc3)ccc21 (stereo partly drawn) [Example 350, 1-(1-Ethyl-propyl)-2-thiophen-2-ylmethyl-1H-benzoimidazole-5-carboxylic acid {(S)-3-methyl-1-[5-(4-trifluoromethyl-benzyl)-2,5-diaza-bicyclo[2.2.1]heptane-2-carbonyl]-butyl}-amide] | 29100 nM
CCC(CC)n1c(Cc2cccs2)nc2cc(C(=O)N[C@@H](CC(C)C)C(=O)N3CC4CC3CN4Cc3ccc(OC)cc3)ccc21 (stereo partly drawn) [Example 351, 1-(1-Ethyl-propyl)-2-thiophen-2-ylmethyl-1H-benzoimidazole-5-carboxylic acid {(S)-1-[5-(4-methoxy-benzyl)-2,5-diaza-bicyclo[2.2.1]heptane-2-carbonyl]-3-methyl-butyl}-amide] | 9290 nM
CCC(CC)n1c(Cc2cccs2)nc2cc(C(=O)N[C@@H](CC(C)C)C(=O)NC3CCN(c4ncccn4)CC3)ccc21 [Example 352, 1-(1-Ethyl-propyl)-2-thiophen-2-ylmethyl-1H-benzoimidazole-5-carboxylic acid [(S)-3-methyl-1-(1-pyrimidin-2-yl-piperidin-4-ylcarbamoyl)-butyl]-amide] | 2980 nM
